Read-outs that look alike come from different tables or passages of the source.
How the values were obtained:
Type in all cases: cell-based, mouse
[1] = system: Nanog/GFP expression in NeFREC(g); test: Chemical genomics screen in NeFREC(g), ES medium without LIF, Nanog/GFP by flow cytometry; conditions: for Effect on RA-induced Nanog/GFP downregulation: agent plus RA compared to RA-induced differentiation condition; for Effect on Nanog/GFP expression / ES cell differentiation induced by omission of LIF: compound alone in ES medium without LIF, one and two days
Description: To validate the use of NeFRECs as an easy reporter cell in chemical genomics proof-of-principle studies were performed with several compounds that are known to show effects on ES cell self-renewal and differentiation or were previously tested in early embryonic development and cancer therapy. The compounds included in the experiment were RA (Sigma, Cat# R2625), Trichostatin A (TSA, Sigma, Cat# T8552, a histone deacetylase (HDAC) inhibitor), Ly294002, (CALBIOCHEM, Cat# 440202, a phosphatidylinositol 3-kinase (PI3K) inhibitor), Rapamycin (Rapa, Sigma, Cat# R0395, an inhibitor of mTOR), PD98059 (CALBIOCHEM, Cat# 513000, a MAP kinase (MAPK) inhibitor), 5-aza-2′-deoxycytidine (AZA, Sigma, Cat# A3656, an inhibitor of DNA methytransferases).
(§1) For the chemical genomics screen 2.5×10^4 cells in 0.5 ml ES medium were plated per 24-well the day before treatment. Medium without LIF supplemented with the different compounds at indicated concentrations was added 24 hrs post-plating. Medium was changed daily. Nanog/GFP levels for each sample were measured by flow cytometry one and two days post drug treatment. Average percentages of Nanog/GFP^+ cells were calculated from duplicate samples (FIG. 10A).

ES cells = system: ES cells
NeFREC(g) = test: Cell morphology of NeFREC(g) after compound treatment; conditions: day 2 of treatment
Description: Microscopy. Microscopy was performed on a Nikon Eclipse TE2000-U microscope with appropriate filter sets, CoolSnapES (black and white/fluorescence) and DXM1200F (color) cameras, and MetaView (black and white/fluorescence) and ACT (color) image-processing software.
as §1
Addition of RA, LY294002 or PD98059 to the cultures has different effects on ES cell colony morphology.

[2] = system: Nanog/GFP expression in NeFREC(g); test: Nanog/GFP expression of NeFREC(g) clones in response to RA, flow cytometry
Description: ES cell growth and differentiation. ES cells were maintained on gelatin-coated tissue culture plates in Dulbecco's Modified Eagels Medium (DMEM; Invitrogen/Gibco) supplemented with 15% fetal calf serum (FCS), 1 mM sodium pyruvate, 2 mM L-glutamine (Invitrogen/Gibco), 0.1 mM non-essential amino acids (Invitrogen/Gibco), 100 U/ml penicillin, 100 μg/ml streptomycin, 1×10^−4 M 2-Mercaptoethanol (2-ME) and 1000 U/ml leukemia inhibitory factor (LIF; ESGROW, Chemicon), henceforth referred to as ES medium. Medium was changed every day and cells were split every second day.
One day prior to differentiation cells were plated on gelatinized culture dishes in the aforementioned medium. Differentiation was induced either by removal of LIF or removal of LIF and addition of retinoic acid (RA, Sigma) if grown in ES medium or either LIF or Bmp4 or both if grown in SF-ES medium.
Cell surface staining, FACS analysis and Cell Sorting. Standard conditions were used to stain the cells. Cell suspensions were analyzed on a FACS Sort (Becton Dickinson). Cell sorting was performed using a FacsVantage with DiVa Software (Becton Dickinson).
NeFREC(g) clones. To determine the dynamics of Nanog/GFP expression of NeFREC(g) clones in response to RA, 4 individual clones (numbers 4, 9, 20 and 23) were analyzed in detail (FIG. 6a upper panel). 2.5×10^4 cells were plated in 0.5 ml ES medium the day before RA treatment. ES medium without LIF and supplemented with 10 μM RA (10 mM stock dissolved in 100% ethanol) was added to cells 24 hours post-plating (indicated as day 0). Nanog/GFP levels in treated cells were measured daily, day 0 to day 3, by flow cytometry. […] By day 3, less than 5% cells remain Nanog/GFP+ in response to RA treatment. […] Eef1b gene expression was used as loading control (5′-[…]-3′ (SEQ ID NO:17) and 5′-[…]-3′ (SEQ ID NO:18)).
To further determine the dynamics of Nanog/GFP expression of NeFREC(g), a RA dosage response experiment, ranging from 0.2 to 10 μM RA, was performed (FIG. 6B). An RA dosage of 0.2 μM is sufficient to induces a rapid and significant downregulation of Nanog/GFP expression in NeFREC(g). Omitting LIF from the ES medium also induces loss of Nanog/GFP expression in these cells at a slower rate compared to RA treatment. Forty percent of the cells still remain Nanog/GFP^+ by day 3. A RA pulse experiment was performed to determine the time required to initiate Nanog/GFP downregulation (i.e. differentiation) in response to 1 μM of RA (FIG. 6C). 2.5×10^4 cells were plated initially in 0.5 ml media per well in a 24-well plate the day before treatment. Cells were pulsed with 1 μM RA in ES medium without LIF for the indicated time periods and then changed to fresh ES medium. Nanog/GFP expression was measured after one day and two days of RA treatment.

[3] = system: Nanog/GFP expression in NeFREC(g); test: Combinatorial RA and TSA treatment of NeFREC(g), Nanog/GFP by flow cytometry
Description: In brief, 2.5×10^4 cells were plated in 0.5 ml ES medium. The HDAC inhibitor TSA was added at various concentrations 24 hours post-plating. One day after TSA treatment, medium was changed to ES medium without LIF plus 1.0 μM RA (indicated as day 0). Medium was changed and Nanog/GFP expression monitored by flow cytometry on a daily basis. […] 75 nM TSA rescued Nanog/GFP levels by more than 50% by day 2.

[4] = system: Nanog/GFP expression in NeFREC(g); test: Transient RNA shRNA transfection of NeFREC(g), Nanog/GFP by flow cytometry; conditions: for Nanog/GFP expression (NeFREC(g) bearing Nanog/GFP): by three days, from 90.9%
Description: (§2) RNA shRNA Transfection. For transfection of RNA shRNA, cells were harvested, washed with DMEM and resuspended at 2×10^5/ml in medium without penicillin and streptomycin. 250 μl of medium without penicillin and streptomycin was added per gelatin pre-coated well of a 24-well culture plate. In order to prepare the RNA shRNA transfection mixture per well, 10-20 μl of RNA shRNA [1 pmole/μl] was mixed with OptiMEM (Invitrogen/Gibco) in a final volume of 50 μl. In a separate tube, 1 μl Lipofectamine2000 (Invitrogen) was added to 49 μl of OptiMEM per sample. The RNA shRNA/OptiMEM and Lipofectamine/OptiMEM solutions were combined, mixed, incubated for 20 min at room temperature and added to the well. Then, 250 μl of cell solution, i.e., 5×10^4 cells/well, were added and the 24-well plate incubated in a humidified chamber in 5% CO2/air mixture at 37° C. Twenty-four hours after transfection, medium was replaced with appropriate medium with penicillin and streptomycin.
RNA shRNA against GFP (5′-[…] UAGACGUUGUGGCUGU-3′; SEQ ID NO:31) was transfected into NeFREC(g) as described in Example 1. Ten pmole of RNA shRNA against GFP reduced Nanog/GFP reporter expression in NeFREC(g) from 85.8% down to 18% 72 hours post-transfection (FIG. 11A). The reduction in Nanog/GFP fluorescence is RNA shRNA concentration-dependent.
The transcription factor Pou5f1 is required for ES cell maintenance and when reduced by more than 50% of wild-type levels results in differentiation towards trophectodermal cells (Niwa et al., 2000 Nat. Genet. 24:372-376). Therefore, 10 pmole of RNA shRNA against Pou5f1 (5′-[…] UAAGGCUGAGCUGCAA-3′; SEQ ID NO:32) was transfected into NeFREC(g).

[5] = system: Nanog/GFP expression in NeFREC(g)-SF; test: Transient RNA shRNA transfection of NeFREC(g)-SF, Nanog/GFP by flow cytometry; conditions: NeFREC(g)-SF in SF-ES medium, by day 2; from 94.8%
Description: Alternatively, ES cells were maintained on gelatin-coated tissue culture plates in a 1:1 mixture of Neurobasal with N2-supplement (Invitrogen/Gibco) and DMEM/F12 with B27 (Invitrogen/Gibco) supplemented with 10% fraction V bovine serum albumin (BSA; Sigma) and 100 U/ml penicillin, 100 μg/ml streptomycin, 1×10^−4 M 2-ME), 1000 U/ml LIF and 10 ng/ml bone morphogenic protein (Bmp) 4 (R&D Systems), henceforth referred to as SF-ES medium. Medium was changed every day and cells split every second day.
as §2, with “Twenty-four hours after transfection, medium was replaced with appropriate medium with penicillin and streptomycin.” left out

Nc1ncn([C@H]2C[C@H](O)[C@@H](CO)O2)c(=O)n1 [AZA, 5-aza-2′-deoxycytidine]
Effect on RA-induced Nanog/GFP downregulation [1]: delay RA-induced Nanog/GFP downregulation
Effect on Nanog/GFP expression / ES cell differentiation induced by omission of LIF [1]: blocked or delayed ES cell differentiation
Cell death as indicated by floating cells in culture (ES cells): can cause cell death at too high concentrations

COc1cccc(-c2cc(=O)c3ccccc3o2)c1N [PD98059]
Effect on RA-induced Nanog/GFP downregulation [1]: delay RA-induced Nanog/GFP downregulation
Effect on Nanog/GFP expression / ES cell differentiation induced by omission of LIF [1]: blocked or delayed ES cell differentiation
ES cell colony morphology (NeFREC(g)): look more like NeFREC(g) cultured in ES medium alone

CC1=C(/C=C/C(C)=C/C=C/C(C)=C/C(=O)O)C(C)(C)CCC1 [RA, retinoic acid]
cells remaining Nanog/GFP+ ([2]; 10 μM RA, ES medium without LIF, by day 3): less than 5%
GFP levels after RA pulse ([2]; 24-hour treatment with 1 μM RA in ES medium without LIF, then fresh ES medium, from more than 90%): 45%
NeFREC(g)s in which the differentiated state is irreversibly fixed ([2]; after 24-hour differentiation pulse, 1 μM RA): about 50%
RA dosage sufficient to induce rapid and significant downregulation of Nanog/GFP expression ([2]; dosage response 0.2 to 10 μM RA): 0.2 µM

CC(/C=C/C(=O)NO)=C\[C@@H](C)C(=O)c1ccc(N(C)C)cc1 [TSA, Trichostatin A]
Effect on RA-induced Nanog/GFP downregulation [1]: delay RA-induced Nanog/GFP downregulation
Effect on Nanog/GFP expression / ES cell differentiation induced by omission of LIF [1]: blocked or delayed ES cell differentiation
Concentration sufficient to kill all ES cells (ES cells; by day 3 of culture): 300 nM
Cell death as indicated by floating cells in culture (ES cells; too high concentrations): can cause cell death at too high concentrations
Rescue of Nanog/GFP levels ([3]; 75 nM TSA, then 1.0 μM RA, by day 2): more than 50%
TSA concentrations at which RA-induced downregulation of Nanog/GFP is markedly reduced ([3]; TSA 24 h, then ES medium without LIF plus 1.0 μM RA): higher than 75 nM

B1: RNA shRNA against Pou5f1: RNA shRNA against Pou5f1, SEQ ID NO:32 (nucleic acid)
chain: GCAGCUCAGCCUUAAGAACAUGUGUAAGCUUUGGAGCUUACACAUGUUCUUAAGGCUGAGCUGCAA
modifications: siRNA; RNA, backbone not given here; hairpin shRNA transfected as RNA
Nanog/GFP expression (NeFREC(g) bearing Nanog/GFP) ([4]; 10 pmole RNA shRNA): 73.1%
Nanog/GFP levels [5]: 68.5%

B2: RNA shRNA against GFP: RNA shRNA against GFP, SEQ ID NO:31 (nucleic acid)
chain: AGCCACAACGUCUAUAUCAUGGCCGACAAGUUGGCUUGUCGGCCAUGAUAUAGACGUUGUGGCUGU
modifications: siRNA; RNA, backbone not given here; hairpin shRNA transfected as RNA
Concentration dependence of reduction in Nanog/GFP fluorescence ([4]; 0 to 10 pmole RNA shRNA): concentration-dependent
Nanog/GFP reporter expression ([4]; 10 pmole RNA shRNA, 72 hours post-transfection, from 85.8%): 18%
Nanog/GFP expression (NeFREC(g) bearing Nanog/GFP) ([4]; 10 pmole RNA shRNA): 21.2%
Nanog/GFP levels [5]: 14.1%
